The values that follow come from ChEMBL document CHEMBL3525973, “Quantitative prediction of human intestinal glucuronidation effects on intestinal availability of UDP-glucuronosyltransferase substrates using in vitro data” (Drug Metab Dispos, 2012).

Series [1] concerns the target T1, UDP-glucuronosyltransferase 1A1 (Homo sapiens, UniProt P22309).
T1 sequence (P22309 whole entry): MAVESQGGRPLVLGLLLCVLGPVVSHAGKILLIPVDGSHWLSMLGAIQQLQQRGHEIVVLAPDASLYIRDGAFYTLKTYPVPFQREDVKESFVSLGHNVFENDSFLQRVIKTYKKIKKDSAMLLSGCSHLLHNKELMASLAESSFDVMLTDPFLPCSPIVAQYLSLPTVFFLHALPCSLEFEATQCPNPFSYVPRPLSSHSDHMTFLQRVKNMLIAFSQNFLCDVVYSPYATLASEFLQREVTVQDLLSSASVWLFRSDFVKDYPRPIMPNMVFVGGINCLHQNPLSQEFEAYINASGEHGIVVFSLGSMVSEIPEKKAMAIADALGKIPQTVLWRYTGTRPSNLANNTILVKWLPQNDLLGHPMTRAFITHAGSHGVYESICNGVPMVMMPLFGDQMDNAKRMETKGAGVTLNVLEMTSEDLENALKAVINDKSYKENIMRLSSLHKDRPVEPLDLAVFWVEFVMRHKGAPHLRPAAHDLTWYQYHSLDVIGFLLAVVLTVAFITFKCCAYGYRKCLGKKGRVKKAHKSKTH
Description: Activity of human UGT1A1 expressed in insect cells assessed as reduction in compound level after 30 mins. It counts as ADME. Conditions: 0.5 h.

Series [2] is described as follows: Apparent permeability by PAMPA method. In general terms: The PAMPA barrier holds no transporters, so it reflects passive diffusion.
Series [3] concerns the target T2, UDP-glucuronosyltransferase 2B15 (Homo sapiens, UniProt P54855).
T2 sequence (P54855 whole entry): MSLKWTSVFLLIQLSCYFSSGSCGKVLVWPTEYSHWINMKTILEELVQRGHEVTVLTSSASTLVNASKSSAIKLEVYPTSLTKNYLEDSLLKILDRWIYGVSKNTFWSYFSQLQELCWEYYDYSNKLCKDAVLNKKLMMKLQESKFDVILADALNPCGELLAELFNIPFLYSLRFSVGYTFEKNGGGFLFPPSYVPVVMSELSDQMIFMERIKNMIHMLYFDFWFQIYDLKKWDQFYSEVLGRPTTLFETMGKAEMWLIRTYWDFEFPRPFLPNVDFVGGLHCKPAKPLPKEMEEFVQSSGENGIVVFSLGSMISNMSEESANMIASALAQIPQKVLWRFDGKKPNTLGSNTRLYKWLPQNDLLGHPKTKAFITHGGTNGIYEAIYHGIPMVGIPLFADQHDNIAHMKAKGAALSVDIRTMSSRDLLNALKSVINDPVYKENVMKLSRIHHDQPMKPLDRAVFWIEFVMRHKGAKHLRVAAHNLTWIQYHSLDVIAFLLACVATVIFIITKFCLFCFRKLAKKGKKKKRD
Briefly: Activity of human UGT2B15 expressed in insect cells assessed as reduction in compound level after 30 mins. Conditions: 0.5 h. It counts as ADME.

Series [4] is described as follows: Unbound intrinsic clearance in human intestinal microsomes assessed UGT-mediated glucuronidation clearance.
Series [5] is described as follows: clinical. The following applies: human, in vivo.
For series [6], the target named is T3, UDP-glucuronosyltransferase 2B7 (Homo sapiens, UniProt P16662).
T3 sequence (P16662 whole entry): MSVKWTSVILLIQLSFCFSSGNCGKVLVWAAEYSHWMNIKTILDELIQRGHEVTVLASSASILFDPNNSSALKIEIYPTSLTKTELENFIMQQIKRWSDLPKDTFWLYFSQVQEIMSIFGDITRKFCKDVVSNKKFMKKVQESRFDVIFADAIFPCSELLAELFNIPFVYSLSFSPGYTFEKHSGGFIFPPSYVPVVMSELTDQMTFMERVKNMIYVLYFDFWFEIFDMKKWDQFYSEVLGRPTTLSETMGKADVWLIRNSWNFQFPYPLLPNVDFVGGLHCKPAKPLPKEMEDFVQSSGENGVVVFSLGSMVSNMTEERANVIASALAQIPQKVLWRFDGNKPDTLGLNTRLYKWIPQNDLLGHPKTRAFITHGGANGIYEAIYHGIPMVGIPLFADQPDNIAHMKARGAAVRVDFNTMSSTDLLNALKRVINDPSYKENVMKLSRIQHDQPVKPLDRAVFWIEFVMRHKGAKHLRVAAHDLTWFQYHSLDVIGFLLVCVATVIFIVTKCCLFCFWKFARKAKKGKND
Description: Activity of human UGT2B7 expressed in insect cells assessed as reduction in compound level after 30 mins. The following applies: 0.5 h. It counts as ADME.

Series [7] can be described thus: in vitro. The following applies: human, blood and plasma.
Description: Ratio of drug level in blood to plasma in human
Series [8] can be described thus: Unbound fraction during UGT-mediated glucuronidation in human intestinal microsomes.
Series [9] in a line: Intrinsic clearance in human intestinal microsomes assessed UGT-mediated glucuronidation clearance.
The target in series [10] is T4, UDP-glucuronosyltransferase 1A7 (Homo sapiens, UniProt Q9HAW7).
T4 sequence (Q9HAW7 whole entry): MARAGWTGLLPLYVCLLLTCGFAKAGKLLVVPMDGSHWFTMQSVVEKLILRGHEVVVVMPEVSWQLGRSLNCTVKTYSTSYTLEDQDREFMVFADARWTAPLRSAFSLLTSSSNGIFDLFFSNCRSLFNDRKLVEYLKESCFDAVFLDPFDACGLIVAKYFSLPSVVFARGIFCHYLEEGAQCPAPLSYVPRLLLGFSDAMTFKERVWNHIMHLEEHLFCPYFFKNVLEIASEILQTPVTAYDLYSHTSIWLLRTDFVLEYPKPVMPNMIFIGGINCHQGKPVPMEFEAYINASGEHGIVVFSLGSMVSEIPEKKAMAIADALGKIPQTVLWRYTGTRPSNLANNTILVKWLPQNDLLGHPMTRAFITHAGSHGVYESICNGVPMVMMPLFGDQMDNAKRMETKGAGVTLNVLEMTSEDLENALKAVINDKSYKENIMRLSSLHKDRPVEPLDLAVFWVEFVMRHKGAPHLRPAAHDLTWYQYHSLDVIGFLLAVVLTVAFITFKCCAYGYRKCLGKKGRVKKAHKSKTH
Description: Activity of human UGT1A7 expressed in insect cells assessed as reduction in compound level after 30 mins. It counts as ADME. Conditions: 0.5 h.

In series [11] the target is T5, UDP-glucuronosyltransferase 1A9 (Homo sapiens, UniProt O60656).
T5 sequence (O60656 whole entry): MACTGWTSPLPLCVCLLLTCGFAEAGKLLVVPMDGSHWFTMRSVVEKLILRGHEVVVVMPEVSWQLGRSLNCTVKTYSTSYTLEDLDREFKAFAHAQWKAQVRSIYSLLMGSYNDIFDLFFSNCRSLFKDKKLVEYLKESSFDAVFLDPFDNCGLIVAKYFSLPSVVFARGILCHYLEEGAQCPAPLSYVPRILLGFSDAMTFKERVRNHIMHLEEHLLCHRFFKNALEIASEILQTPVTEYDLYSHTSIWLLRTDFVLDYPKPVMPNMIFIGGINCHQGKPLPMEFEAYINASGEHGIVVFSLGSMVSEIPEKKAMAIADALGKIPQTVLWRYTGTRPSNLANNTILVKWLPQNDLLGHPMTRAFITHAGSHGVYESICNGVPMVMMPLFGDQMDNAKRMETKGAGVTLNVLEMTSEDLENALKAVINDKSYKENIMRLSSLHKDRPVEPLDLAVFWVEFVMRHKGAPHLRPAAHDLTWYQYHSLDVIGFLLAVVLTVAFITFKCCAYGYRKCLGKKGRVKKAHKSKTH
Description: Activity of human UGT1A9 expressed in insect cells assessed as reduction in compound level after 30 mins. It counts as ADME. The following applies: 0.5 h.

Series [12] in a line: Unbound intrinsic clearance in human intestinal microsomes assessed CYP450-mediated glucuronidation clearance.
The nature of series [13]: Intrinsic clearance in human intestinal microsomes assessed CYP450-mediated glucuronidation clearance. The following applies: microsomes.
The nature of series [14]: Bioavailability in human. It counts as ADME, organism-based. Conditions: in vivo.

For `Cc1c(Cl)cccc1Nc1ccccc1C(=O)O` [TOLFENAMIC ACID], the Drug metabolism result in [1], in [3], in series [6], in [10] and in series [11] was “metabolite_detected” each time. In addition, the apparent permeability (Papp) in [2] came to 14 ×10⁻⁶ cm/s. Moreover, the CL free in series [4] amounted to 176 µL/min/mg. The clearance in series [5] came to 2.2 mL/min/kg. For the same compound, the blood plasma ratio in series [7] stood at 0.66. This compound came in with a fraction unbound in series [8] (intestinal microsomes) of 0.88. Besides, the microsomal CLint in [9] (intestinal microsomes) was 155 µL/min/mg.

On to `Cc1ccc(C)c(OCCCC(C)(C)C(=O)O)c1` [GEMFIBROZIL], for which the Papp in series [2] is below 0.1 ×10⁻⁶ cm/s. In addition, the results for the CL free result in series [12] and in series [4] were “metabolite_not_detected” and 17.5 µL/min/mg, respectively. For the same compound, in series [6], the Drug metabolism result was “metabolite_detected”. Also, the blood plasma ratio in series [7] stood at 0.58. In series [8] (microsomes), this compound yielded an unbound share (fraction unbound) of 0.97. Further, the intrinsic metabolic clearance (microsomal CLint) in [9] (microsomes) is 17 µL/min/mg. For the same compound, in series [13], the CL entry was “metabolite_not_detected”. Besides, in [14], the bioavailability was 100%.

A word on the Papp: it is the rate of passage across a membrane or cell layer, normalised by area and donor concentration. For orientation: clearance means the volume of plasma or blood freed of the substance per unit of time. Broadly, the fraction unbound is the share of the substance not bound to proteins or other matrix. The term microsomal CLint denotes a measure of how fast metabolising enzymes remove a compound, apart from limits set by blood flow. Broadly, the bioavailability is the share of a dose that reaches the circulation, judged against a reference dose that is usually intravenous. Read a high bioavailability as much systemic uptake.
